test system: HuH-7 replicon cells 5–15 and 9–13 (HCV replication); experiment: Inhibition of viral replication in HuH-7 replicon cells (HCV RNA / GAPDH RNA by multiplex RT-PCR); format: cell-based; conditions: Hepatitis C virus, 72 h; inhibiting 50% of replication; HuH-7 replicon cells, 3 days; read-out: IC50
How it was run: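 HCV and GAPDH RNA were measured by multiplex TaqMan RT-PCR (HCV 5′ untranslated region) after 3-day compound treatment at 37 °C, final 100 μM–1 μM in 1% DMSO. Cells were plated 24 h beforehand at 7×10^3/well. Read-out: HCV-to-GAPDH ratio expressed as percent control versus untreated cells.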

First: O=C(N/N=C/c1ccccc1OS(=O)(=O)c1ccc(C(F)(F)F)cc1)C1CCCCC1 [Compound 101, 2-{(E)-[2-(cyclohexylcarbonyl)hydrazono]methyl}phenyl 4-(trifluoromethyl)benzenesulfonate]
Second: Cn1cnc(CC(=O)N/N=C/c2ccccc2OS(=O)(=O)c2ccc(C(F)(F)F)cc2)c1 [Compound 106, 2-((E)-{2-[2-(1-methyl-1H-imidazol-4-yl)acetyl]hydrazono}methyl)phenyl 4-(trifluoromethyl)benzenesulfonate]
The IC50 of the first is higher: 5 to 50 µM for the first, < 5 µM for the second. The second is the more potent here.

O=C(N/N=C/c1ccccc1OS(=O)(=O)c1ccc(C(F)(F)F)cc1)c1c(F)cccc1F [Compound 102, 2-{(E)-[2-(2,6-difluorobenzoyl)hydrazono]methyl}phenyl4-(trifluoromethyl)benzenesulfonate] and O=C(N/N=C/c1ccccc1OS(=O)(=O)c1ccc(C(F)(F)F)cc1)c1c(F)cccc1C(F)(F)F [Compound 103, 2-((E)-{2-[2-fluoro-6-(trifluoromethyl)benzoyl]hydrazono}methyl)-phenyl 4-(trifluoromethyl)benzenesulfonate] cannot be ordered by IC50: < 5 µM for the first, < 5 µM for the second.

O=C(N/N=C/c1ccccc1OS(=O)(=O)c1ccc(C(F)(F)F)cc1)c1ccccc1C(F)(F)F [Compound 104, 2-((E)-{2-[2-(trifluoromethyl)benzoyl]hydrazono}methyl)-phenyl 4-(trifluoromethyl)benzenesulfonate] and O=C(Cc1ccccc1)N/N=C/c1ccccc1OS(=O)(=O)c1ccc(C(F)(F)F)cc1 [Compound 123, 2-{(E)-[2-(2-phenylacetyl)hydrazono]methyl}phenyl 4-(trifluoromethyl)benzenesulfonate] cannot be ordered by IC50: < 5 µM for the first, < 5 µM for the second.

First: CCc1ccc(S(=O)(=O)N/N=C/c2ccccc2OS(=O)(=O)c2ccc(C(F)(F)F)cc2)cc1 [Compound 105, 2-((E)-{2-[(4-ethylphenyl)sulfonyl]hydrazono}methyl)-phenyl 4-(trifluoromethyl)benzenesulfonate]
Second: CC(C)(C)c1ccc(S(=O)(=O)Oc2ccccc2/C=N/NC(=O)Cc2ccccc2)cc1 [Compound 121, 2-{(E)-[2-(2-phenylacetyl)hydrazono]methyl}phenyl 4-tert-butylbenzenesulfonate]
The IC50 of the first is higher: 5 to 50 µM for the first, < 5 µM for the second.

First: O=C(Cn1c(Br)nc(Cl)c1Cl)N/N=C/c1ccccc1OS(=O)(=O)c1ccc(C(F)(F)F)cc1 [Compound 107, 2-((E)-{2-[2-(2-bromo-4,5-dichloro-1H-imidazol-1-yl)acetyl]hydrazono}methyl)phenyl 4-(trifluoromethyl)benzenesulfonate]
Second: O=C(Cc1ccccc1)N/N=C/c1ccccc1OS(=O)(=O)c1cccc(C(F)(F)F)c1 [Compound 122, 2-{(E)-[2-(2-phenylacetyl)hydrazono]methyl}phenyl 3-(trifluoromethyl)benzenesulfonate]
The IC50 of the first is higher: > 50 µM for the first, 5 to 50 µM for the second.

O=C(Cc1ccccc1)N/N=C/c1ccccc1OS(=O)(=O)c1ccccc1 [Compound 108, 2-{(E)-[2-(2-phenylacetyl)hydrazono]methyl}phenylbenzenesulfonate] and Cc1ccccc1S(=O)(=O)Oc1ccccc1/C=N/NC(=O)Cc1ccccc1 [Compound 110, 2-{(E)-[2-(2-phenylacetyl)hydrazono]methyl}phenyl 2-methylbenzenesulfonate] cannot be ordered by IC50: > 50 µM for the first, > 50 µM for the second.

O=C(Cc1ccccc1)N/N=C/c1ccccc1OS(=O)(=O)c1cccs1 [Compound 109, 2-{(E)-[2-(2-phenylacetyl)hydrazono]methyl}phenylthiophene-2-sulfonate] and Cc1cccc(S(=O)(=O)Oc2ccccc2/C=N/NC(=O)Cc2ccccc2)c1 [Compound 111, 2-{(E)-[2-(2-phenylacetyl)hydrazono]methyl}phenyl 3-methylbenzenesulfonate] cannot be ordered by IC50: > 50 µM for the first, > 50 µM for the second.

O=C(Cc1ccccc1)N/N=C/c1ccccc1OS(=O)(=O)c1ccccc1F [Compound 112, 2-{(E)-[2-(2-phenylacetyl)hydrazono]methyl}phenyl 2-fluorobenzenesulfonate] and O=C(Cc1ccccc1)N/N=C/c1ccccc1OS(=O)(=O)c1cccc(F)c1 [Compound 113, 2-{(E)-[2-(2-phenylacetyl)hydrazono]methyl}phenyl 3-fluorobenzenesulfonate] cannot be ordered by IC50: > 50 µM for the first, > 50 µM for the second.

N#Cc1cccc(S(=O)(=O)Oc2ccccc2/C=N/NC(=O)Cc2ccccc2)c1 [Compound 114, 2-{(E)-[2-(2-phenylacetyl)hydrazono]methyl}phenyl 3-cyanobenzenesulfonate] and O=C(Cc1ccccc1)N/N=C/c1ccccc1OS(=O)(=O)c1cccc(Cl)c1 [Compound 116, 2-{(E)-[2-(2-phenylacetyl)hydrazono]methyl}phenyl 3-chlorobenzenesulfonate] cannot be ordered by IC50: > 50 µM for the first, > 50 µM for the second.

First: N#Cc1ccc(S(=O)(=O)Oc2ccccc2/C=N/NC(=O)Cc2ccccc2)cc1 [Compound 115, 2-{(E)-[2-(2-phenylacetyl)hydrazono]methyl}phenyl 4-cyanobenzenesulfonate]
Second: O=C(Cc1ccccc1)N/N=C/c1ccccc1OS(=O)(=O)c1ccc(Cl)cc1 [Compound 117, 2-{(E)-[2-(2-phenylacetyl)hydrazono]methyl}phenyl 4-chlorobenzenesulfonate]
The IC50 of the first is higher: 5 to 50 µM for the first, < 5 µM for the second.

O=C(Cc1ccccc1)N/N=C/c1ccccc1OS(=O)(=O)c1ccc(F)c(F)c1 [Compound 118, 2-{(E)-[2-(2-phenylacetyl)hydrazono]methyl}phenyl3,4-difluorobenzenesulfonate] and O=C(Cc1ccccc1)N/N=C/c1ccccc1OS(=O)(=O)c1ccc(F)c(Cl)c1 [Compound 120, 2-{(E)-[2-(2-phenylacetyl)hydrazono]methyl}phenyl 3-chloro-4-fluorobenzenesulfonate] fall in the same range of IC50: 5 to 50 µM for the first, 5 to 50 µM for the second.

First: O=C(Cc1ccccc1)N/N=C/c1ccccc1OS(=O)(=O)c1ccc2ccccc2c1 [Compound 119, 2-{(E)-[2-(2-phenylacetyl)hydrazono]methyl}phenylnaphthalene-2-sulfonate]
Second: O=C(Cc1ccccc1)N/N=C/c1ccccc1OS(=O)(=O)c1cccc(Br)c1 [Compound 127, 2-{(E)-[2-(2-phenylacetyl)hydrazono]methyl}phenyl 3-bromobenzenesulfonate]
The IC50 of the first is lower: < 5 µM for the first, 5 to 50 µM for the second.

O=C(Cc1ccccc1)N/N=C/c1ccccc1OS(=O)(=O)c1ccc(Cl)cc1Cl [Compound 124, 2-{(E)-[2-(2-phenylacetyl)hydrazono]methyl}phenyl2,4-dichlorobenzenesulfonate] and O=C(Cc1ccccc1)N/N=C/c1ccccc1OS(=O)(=O)c1ccc(Cl)c(Cl)c1 [Compound 125, 2-{(E)-[2-(2-phenylacetyl)hydrazono]methyl}phenyl3,4-dichlorobenzenesulfonate] cannot be ordered by IC50: < 5 µM for the first, < 5 µM for the second.

First: O=C(Cc1ccccc1)N/N=C/c1ccccc1OS(=O)(=O)c1cc(Cl)cc(Cl)c1 [Compound 126, 2-{(E)-[2-(2-phenylacetyl)hydrazono]methyl}phenyl3,5-dichlorobenzenesulfonate]
Second: O=C(Cc1ccccc1)N/N=C/c1ccccc1OS(=O)(=O)c1ccc(Br)cc1 [Compound 128, 2-{(E)-[2-(2-phenylacetyl)hydrazono]methyl}phenyl 4-bromobenzenesulfonate]
The IC50 of the first is higher: 5 to 50 µM for the first, < 5 µM for the second. The second is the more potent here.

Molecule O=C(Cc1ccccc1)N/N=C/c1ccccc1OS(=O)(=O)c1ccc(F)cc1 [Compound 129, 2-{(E)-[2-(2-phenylacetyl)hydrazono]methyl}phenyl 4-fluorobenzenesulfonate] has an IC50 of 5 to 50 µM.
